# Results: ChEMBL document CHEMBL4346757, “Synthesis and biological evaluation of 7-methoxy-1-(3,4,5-trimethoxyphenyl)-4,5-dihydro-2H-benzo[e]indazoles as new colchicine site inhibitors” (Bioorg Med Chem Lett, 2019)
# Experiments:
# Type in all cases: functional
# U-251 = experiment: Growth inhibition of human U251 cells assessed as cell growth at 100 uM after 48 hrs by SRB assay relative to control; details: U-251, 48 h, read-out: Activity
# EKVX = experiment: Growth inhibition of human EKVX cells assessed as cell growth at 0.1 uM after 48 hrs by SRB assay relative to control; details: read-out: Activity
# NCI/ADR-RES = experiment: Growth inhibition of human NCI-ADR-RES cells assessed as cell growth at 100 uM after 48 hrs by SRB assay relative to control; details: read-out: Activity
# LOX IMVI [1] = experiment: Growth inhibition of human LOXIMVI cells assessed as cell growth at 0.1 uM after 48 hrs by SRB assay relative to control; details: read-out: Activity
# COLO 205 [2] = experiment: Cytotoxicity against human COLO205 cells assessed as growth inhibition after 48 hrs by SRB assay; details: COLO 205, 48 h
# COLO 205 [3] = experiment: Growth inhibition of human COLO205 cells assessed as cell growth at 100 uM after 48 hrs by SRB assay relative to control; details: COLO 205, 48 h, read-out: Activity
# SK-MEL-28 [4] = experiment: Growth inhibition of human SK-MEL-28 cells assessed as cell growth at 10 uM after 48 hrs by SRB assay relative to control; details: SK-MEL-28, 48 h, read-out: Activity
# CCRF-CEM = experiment: Growth inhibition of human CCRF-CEM cells assessed as cell growth at 0.1 uM after 48 hrs by SRB assay relative to control; details: read-out: Activity
# SK-MEL-5 = experiment: Growth inhibition of human SK-MEL-5 cells assessed as cell growth at 1 uM after 48 hrs by SRB assay relative to control; details: SK-MEL-5, 48 h, read-out: Activity
# Malme-3M = experiment: Growth inhibition of human MALME-3M cells assessed as cell growth at 0.1 uM after 48 hrs by SRB assay relative to control; details: read-out: Activity
# SF-268 [5] = experiment: Cytotoxicity against human SF268 cells assessed as growth inhibition after 48 hrs by SRB assay; details: SF-268, 48 h
# MDA-MB-231 = experiment: Growth inhibition of human MDA-MB-231/ATCC cells assessed as cell growth at 1 uM after 48 hrs by SRB assay relative to control; details: MDA-MB-231, 48 h, read-out: Activity
# BT-549 = experiment: Growth inhibition of human BT549 cells assessed as cell growth at 10 uM after 48 hrs by SRB assay relative to control; details: BT-549, 48 h, read-out: Activity
# LOX IMVI [6] = experiment: Cytotoxicity against human LOXIMVI cells assessed as growth inhibition after 48 hrs by SRB assay
# M14 [7] = experiment: Growth inhibition of human M14 cells assessed as cell growth at 100 uM after 48 hrs by SRB assay relative to control; details: M14, 48 h, read-out: Activity
# HT-29 = experiment: Growth inhibition of human HT-29 cells assessed as cell growth at 0.01 uM after 48 hrs by SRB assay relative to control; details: HT-29, 48 h, read-out: Activity
# M14 [8] = experiment: Cytotoxicity against human M14 cells assessed as growth inhibition after 48 hrs by SRB assay; details: M14, 48 h
# MDA-MB-468 = experiment: Growth inhibition of human MDA-MB-468 cells assessed as cell growth at 10 uM after 48 hrs by SRB assay relative to control; details: MDA-MB-468, 48 h, read-out: Activity
# OVCAR-8 = experiment: Cytotoxicity against human OVCAR8 cells assessed as growth inhibition after 48 hrs by SRB assay; details: OVCAR-8, 48 h
# T47D = experiment: Growth inhibition of human T47D cells assessed as cell growth at 0.1 uM after 48 hrs by SRB assay relative to control; details: read-out: Activity
# HOP-62 = experiment: Growth inhibition of human HOP62 cells assessed as cell growth at 0.01 uM after 48 hrs by SRB assay relative to control; details: HOP-62, 48 h, read-out: Activity
# NCI-H460 = experiment: Growth inhibition of human NCI-H460 cells assessed as cell growth at 0.1 uM after 48 hrs by SRB assay relative to control; details: NCI-H460, 48 h, read-out: Activity
# DU-145 = experiment: Growth inhibition of human DU145 cells assessed as cell growth at 0.1 uM after 48 hrs by SRB assay relative to control; details: DU-145, 48 h, read-out: Activity
# SK-MEL-28 [9] = experiment: Growth inhibition of human SK-MEL-28 cells assessed as cell growth at 1 uM after 48 hrs by SRB assay relative to control; details: SK-MEL-28, 48 h, read-out: Activity
# SF-268 [10] = experiment: Growth inhibition of human SF268 cells assessed as cell growth at 0.1 uM after 48 hrs by SRB assay relative to control; details: SF-268, 48 h, read-out: Activity
# HCT-15 = experiment: Growth inhibition of human HCT15 cells assessed as cell growth at 0.1 uM after 48 hrs by SRB assay relative to control; details: HCT-15, 48 h, read-out: Activity
# COLO 205 [11] = experiment: Growth inhibition of human COLO205 cells assessed as cell growth at 1 uM after 48 hrs by SRB assay relative to control; details: COLO 205, 48 h, read-out: Activity
# UO-31 = experiment: Cytotoxicity against human UO31 cells assessed as growth inhibition after 48 hrs by SRB assay; details: UO-31, 48 h
# A549 = experiment: Cytotoxicity against human A549/ATCC cells assessed as growth inhibition after 48 hrs by SRB assay; details: A549, 48 h
# [12] = read-out: LC50 (the source's name)
# [13] = read-out: pLC50 (the source's name) (converted)
structure (smiles),measurement,setting,value
COc1ccc2c(c1)CCc1n[nH]c(-c3cc(OC)c(OC)c(OC)c3)c1-2,growth at 100 µM,U-251,-72%
same,growth at 0.1 µM,EKVX,53%
same,growth at 100 µM,NCI/ADR-RES,-31%
same,growth at 0.1 µM,LOX IMVI [1],16%
same,GI50,COLO 205 [2]; read-out: GI50,< 0.01 µM
same,CC50,COLO 205 [2]; [12],0.249 µM
same,TGI,COLO 205 [2]; read-out: TGI,< 0.01 µM
same,GI50,COLO 205 [2]; read-out: pGI50 (converted),< 0.01 µM
same,CC50,COLO 205 [2]; [13],0.251 µM
same,TGI,COLO 205 [2]; read-out: pTGI,< 0.01 µM
same,growth at 100 µM,COLO 205 [3],-71%
same,growth at 10 µM,SK-MEL-28 [4],34%
same,growth at 0.1 µM,CCRF-CEM,42%
same,growth at 1 µM,SK-MEL-5,-24%
same,growth at 0.1 µM,Malme-3M,48%
same,GI50,SF-268 [5]; read-out: GI50,< 0.01 µM
same,CC50,SF-268 [5]; [12],> 100 µM
same,TGI,SF-268 [5]; read-out: TGI,26.8 µM
same,GI50,SF-268 [5]; read-out: pGI50 (converted),< 0.01 µM
same,CC50,SF-268 [5]; [13],> 100 µM
same,TGI,SF-268 [5]; read-out: pTGI (converted),26.9 µM
same,growth at 1 µM,MDA-MB-231,29%
same,growth at 10 µM,BT-549,1%
same,GI50,LOX IMVI [6]; read-out: GI50,< 0.01 µM
same,CC50,LOX IMVI [6]; [12],38.3 µM
same,TGI,LOX IMVI [6]; read-out: TGI,11.8 µM
same,GI50,LOX IMVI [6]; read-out: pGI50 (converted),< 0.01 µM
same,CC50,LOX IMVI [6]; [13],38 µM
same,TGI,LOX IMVI [6]; read-out: pTGI (converted),11.7 µM
same,growth at 100 µM,M14 [7],-66%
same,growth at 0.01 µM,HT-29,5%
same,GI50,M14 [8]; read-out: GI50,< 0.01 µM
same,LC50,M14 [8]; read-out: LC50,58.7 µM
same,TGI,M14 [8]; read-out: TGI,10.9 µM
same,GI50,M14 [8]; read-out: pGI50 (converted),< 0.01 µM
same,LC50,M14 [8]; read-out: pLC50 (converted),58.9 µM
same,TGI,M14 [8]; read-out: pTGI (converted),11 µM
same,growth at 10 µM,MDA-MB-468,-5%
same,GI50,OVCAR-8; read-out: GI50,< 0.01 µM
same,LC50 (concentration killing 50% of cells),OVCAR-8; read-out: LC50,> 100 µM
same,TGI,OVCAR-8; read-out: TGI,15.4 µM
same,GI50,OVCAR-8; read-out: pGI50 (converted),< 0.01 µM
same,LC50 (concentration killing 50% of cells),OVCAR-8; read-out: pLC50 (converted),> 100 µM
same,TGI,OVCAR-8; read-out: pTGI (converted),15.5 µM
same,growth at 0.1 µM,T47D,74%
same,growth at 0.01 µM,HOP-62,11%
same,growth at 0.1 µM,NCI-H460,2%
same,growth at 0.1 µM,DU-145,10%
same,growth at 1 µM,SK-MEL-28 [9],54%
same,growth at 0.1 µM,SF-268 [10],30%
same,growth at 0.1 µM,HCT-15,4%
same,growth at 1 µM,COLO 205 [11],-56%
same,GI50,UO-31; read-out: GI50,< 0.01 µM
same,CC50,UO-31; [12],> 100 µM
same,TGI,UO-31; read-out: TGI,17.3 µM
same,GI50,UO-31; read-out: pGI50 (converted),< 0.01 µM
same,CC50,UO-31; [13],> 100 µM
same,TGI,UO-31; read-out: pTGI (converted),17.4 µM
same,GI50,A549; read-out: GI50,< 0.01 µM
same,CC50,A549; [12],> 100 µM
same,TGI,A549; read-out: TGI,19.5 µM
same,GI50,A549; read-out: pGI50 (converted),< 0.01 µM
same,CC50,A549; [13],> 100 µM
same,TGI,A549; read-out: pTGI (converted),19.5 µM
